The text below walks through data of US3975384A, “2,4,5,6-Tetrasubstituted pyrimidines and salts thereof” (Boehringer Ingelheim GmbH, priority 1973, dated 1976).

Read-outs that look alike come from different tables or passages of the source.

The subject of data set [1] is platelet adhesiveness in human blood. Nature of the data set: Morris retention test, inhibition of platelet adhesiveness. The data set is classed as cell-based. The following applies: 10 min; for inhibition at 10 µM: 10 μ mols/liter, 10 minutes at 37°C, glass beads. Here is the method: 2. Determination of inhibiting effect on platelet adhesiveness in human blood by the so-called retention test according to Morris (E. Deutsch, E. Gerlach and K. Moser: 1. Internationales Symposium uber Stoffwechsel und Membranpermeabilitat von Erythrozyten and Thrombozyten, Vienna, 1969; Georg Thieme Verlag, Stuttgart, Germany).
To determine the inhibiting action of the test compound on thrombocyte aggregation, 1 ml of human blood was pipetted into each of a plurality of small test tubes, and the test compound was added to give a final concentration of 5 × 10^-^5 mol/liter or 1 × 10^^-5 mol/liter. The tubes were incubated for 10 minutes at 37°C. 1 gm of glass beads (for gas-chromatography) was added to half of the tubes. Then, the stoppered tubes were attached to a disc mounted for rotation about a horizontal axis and rotated for 1 minute. By this means good contact was obtained between the glass beads and the blood. The tubes were then left standing at room temperature for another hour, after which time a satisfactory sedimentation of erythrocytes had taken place. 0.01 ml of the supernatant plasma was removed, diluted 1:8000 with celloscope solution, and the platelet count was read in a celloscope. The percentage reduction of the stickiness due to the presence of the test compound, compared to the tubes containing no glass beads, was measured (average values of 4- 6 tests).

Data set [2] can be described thus: Acute toxicity (LD50) in mice. The following applies: mouse, in vivo, observation time 14 days. Here is the method: The acute toxicity of the test compounds was determined in mice (observation time: 14 days). The LD50 was calculated from the percentage of animals which died within the observation time after administration, i.v. or p.o., of varying doses [see J. Pharmacol. exper. Therap. 96, 99 (1949)].

Data set [3] deals with platelet aggregation in human blood plasma. Kind of data set: Born and Cross test, ADP-induced platelet aggregation. The following applies: 10 min, human platelet-rich plasma, 10 minutes at 37°C, read-out: Born and Cross test (ADP) EC50 (concentration which causes a 50% alteration of the "optical density"). The data set is classed as cell-based. How it is done: 1. Determination of inhibiting effect upon platelet aggregation in human blood plasma by the method of Born and cross, J. Physiol. 170, 397 (1964):
The platelet aggregation was measured in the platelet-rich plasma of normal, healthy human donors. The rate of decline of the optical density of the platelet suspension was measured and recorded photometrically after the addition of adenosine diphosphate (ADP). From the angle of inclination of the density curve, the speed of aggregation was concluded. The optical density was taken as the point on the curve where most light was transmitted. The smallest possible doses of ADP were chosen, but enough to result in irreversible aggregation. The plasma was incubated at 37°C for 10 minutes with varying quantities of the test compound before ADP was added.

Data set [4] in a line: Hygroscopicity remark on acid addition salt. It is filed as physicochemical. The note with it: printed beside m.p. of the salt.

By inhibition is commonly meant the change of the read-out against control, counted positive when it falls. Lower therefore signals little suppression. A word on the LD50: it is the dose at which mortality reaches 50%. In turn, `Cc1nc(N2CCNCC2)nc(N2CC[S+]([O-])CC2)c1[N+](=O)[O-]` [A, 6-methyl-5-nitro-2-piperazino-4-(1-oxido-thiomorpholino)-pyrimidine] gave an inhibition at 10 µM in data set [1] of 92%. The LD50 at 336 h came out at 160 mg/kg in data set [2] (iv, read-out: LD50 i.v.) and 600 mg/kg in data set [2] (po, read-out: LD50 p.o.). The IC50 in data set [3] amounted to 12 nM.
`Cc1nc(N2CCNCC2)nc(N2CCSCC2)c1[N+](=O)[O-]` [B, 6-methyl-5-nitro-2-piperazino-4-thiomorpholino-pyrimidine] registered an inhibition at 10 µM in data set [1] of 66%. Moreover, the LD50 at 336 h worked out at 70 mg/kg in data set [2] (iv, read-out: LD50 i.v.) and 620 mg/kg in data set [2] (po, read-out: LD50 p.o.). Further, the IC50 in data set [3] came to 3000 nM.
The molecule `N#Cc1nc(N2CCNCC2)nc(N2CC[S+]([O-])CC2)c1Cl` [C, 5-chloro-6-cyano-2-piperazino-4-(1-oxido-thiomorpholino)-pyrimidine] displayed an inhibition at 10 µM in data set [1] of 92%. In addition, the LD50 at 336 h was determined as 101 mg/kg in data set [2] (iv, read-out: LD50 i.v.) and 836 mg/kg in data set [2] (po, read-out: LD50 p.o.). The IC50 in data set [3] stood at 130 nM.
As to `CCOc1nc(N2CCNCC2)nc(N2CC[S+]([O-])CC2)c1[N+](=O)[O-]` [D, 6-ethoxy-5-nitro-4-(1-oxido-thiomorpholino)-2-piperazino-pyrimidine], in data set [1], testing at 10 µM gave an inhibition of 100%. For the same molecule, the LD50 at 336 h was 150 mg/kg in data set [2] (iv, read-out: LD50 i.v.) and 600 mg/kg in data set [2] (po, read-out: LD50 p.o.). In addition, in data set [3], the IC50 is 25 nM.
For `CC(C)Oc1nc(N2CCNCC2)nc(N2CC[S+]([O-])CC2)c1[N+](=O)[O-]` [E, 5-nitro-4-(1-oxido-thiomorpholino)-2-piperazino-6-isopropoxy-pyrimidine], in that order: 69%, 170 mg/kg, 500 mg/kg and 200 nM.
`CCC(C)Oc1nc(N2CCNCC2)nc(N2CCS(=O)(=O)CC2)c1[N+](=O)[O-]` (stereo not shown) [F, 6-sec.Butoxy-4-(1,1-dioxido-thiomorpholino)-5-nitro-2-piperazino-pyrimidine]: at 10 µM the inhibition in data set [1] was 61%. Moreover, the LD50 at 336 h stood at 150 mg/kg in data set [2] (iv, read-out: LD50 i.v.) and 1500 mg/kg in data set [2] (po, read-out: LD50 p.o.). The IC50 in data set [3] worked out at 850 nM.
As to `CCOc1nc(N2CCNCC2)nc(N2CC[S+]([O-])CC2)c1[N+](=O)[O-]` [Fumarate, 6-Ethoxy-5-nitro-4-(1-oxido-thiomorpholino)-2-piperazino-pyrimidine], in data set [4], the hygroscopicity entry is “hydroscopic”.
For `CSc1nc(N2CCN(C=O)CC2)nc(N2CC[S+]([O-])CC2)c1[N+](=O)[O-]` [G, 6-methylthio-5-nitro-4-(1-oxido-thiomorpholino)-2-(N'-formyl-piperazino)-pyrimidine], the inhibition at 10 µM in data set [1] was found to be 2%. Moreover, the median lethal dose (LD50) at 336 h in data set [2] (po, read-out: LD50 p.o.) was greater than 1000 mg/kg. The IC50 in data set [3] worked out at 50000 nM.
`CC(=O)CC(=O)N1CCN(c2nc(C)c([N+](=O)[O-])c(N3CC[S+]([O-])CC3)n2)CC1` [H, 6-methyl-5-nitro-4-(1-oxido-thiomorpholino)-2-(N'-acetoacetyl-piperazino)-pyrimidine] registered an inhibition at 30 µM in data set [1] (Concentration: 30μ mols/liter (footnote +)) of 11%. The LD50 at 336 h in data set [2] (po, read-out: LD50 p.o.) was greater than 1000 mg/kg. Moreover, the IC50 in data set [3] was found to be 100000 nM.
